One series deals with diabetic symptoms. Conditions: mouse administered streptozotocin; cited from earlier work.
The subject of another series is atherosclerosis. Conditions: early formation of atherosclerotic lesion; cited from earlier work.
Series [1] deals with collagen-induced arthritis. As to the kind of experiment: Collagen-induced arthritis model (arthritic index). It is filed as in vivo, mouse. Conditions: 25 mg/kg/day intraperitoneal. The protocol: FIG. 15 is results showing efficacy through arthritis animal model induced by collagen. 25 mg/kg of compound 2, 3 or 18, or methotrexate (control, MTX, 1 mg/kg/week) was intraperitoneally injected after administration of collagen.
FIG. 16 is results showing efficacy of compounds 6 and 11 through arthritis animal model induced by collagen. Collagen was intradermally injected two times with 2 week-interval. One week later, compound 6, compound 11 and methotrexate (control) were intraperitoneally injected. Then, the animals were observed everyday for 2-3 weeks, and results was evaluated by arthritis index.
To evaluate the efficacy of the 2-hydroxybenzoic acid derivative, collagen-induced arthritis model (rheumarthritis animal model) was used. Bovine type II collagen was mixed with complete Freund's adjuvant to make an emulsion, and the emulsion was intradermally injected into the origin site of 8˜10 week-old DBA/1LacJ mouse tail. Intradermal boosting was performed by the same method 2 weeks later. 25 mg/kg/day of compounds 2, 3 and 18, 1 mg/kg/week of methotrexate (comparative example) or 10% vehicle (control) were intraperitoneally injected one week after the second intradermal injection of collagen (FIG. 15). Pictures of foot edema of normal rat (sham), collagen-administered rat (collagen) and compound 18-administered rat (compound 18, 25 mg/kg/day injection) were shown in FIG. 14.
In addition, 50 mg/kg/day of compounds 6 and 11, and 5 mg/kg/2 days of methotrexate (comparative example) were intraperitoneally injected. Phosphate buffered saline was injected as control (FIG. 16). For 2˜3 weeks, the degree of arthritis was observed everyday, and the result was evaluated according to the below arthritic index using edema.
4 paws were evaluated as from 0 to 4 point, Total points: 16

In the next series the test system is gastric mucous membrane. Kind of series: Safety test about induction of gastric mucous membrane damage. It is filed as in vivo. The note with it: oral, high dose; indomethacine, ibuprofen, celecoxib as control. How it is done:
Test samples were orally administered at different doses to evaluate the degree of the gastric mucous membrane damage. Aspirin was used as control.
FIG. 2 is results showing degrees of the gastric mucous membrane damage. Test samples were orally administered at indicated doses. […] Indomethacine, ibuprofen and celecoxib were used as control.
Conventional NSAIDs have side effects causing damages to the gastric mucous membrane. Therefore, it was evaluated whether compound 2 having anti-inflammatory effect causes the gastric damage or not. 30, 100 or 300 mg/kg of aspirin was orally administered as control.

A further series has as its system BV2 microglia cell line. As to the kind of experiment: Suppressing effect on production of NO (LPS, Griess reagent). The series is classed as cell-based. The note with it: Mus musculus, BV-2, LPS-treated BV2 microglia, 24 hours incubation. The protocol: Inhibiting effect of the 2-hydroxybenzoic acid derivative according to the present invention on NO, inflammatory factor intervening inflammation reaction was evaluated. BV2 microglia cell line was treated with lipopolysaccharide (LPS), a inflammation-inducing material of bacteria toxin, with inclusion of 10 uM, 30 uM or 100 uM of the present compound. After 24 hours of incubation, 50 ul of culture medium was collected in 96-well plate. Then, 50 ul of Griess reagent was added and incubated for 10 minutes at room temperature. The absorbance was evaluated by ELISA reader at 540 nm.
For orientation: Griess reagent forms a coloured azo dye with nitrite.

The subject of series [2] is cerulein-induced pancreatitis. Kind of series: Cerulein-induced acute pancreatitis model. The series is classed as in vivo, wistar rat. The protocol: FIG. 21 is efficacy test results using acute pancreatitis model induced by cerulein. 50 ug/kg of cerulein was administered. Two hours later, edema was induced by administration of LPS. A-C are picture results, and D is graphs showing the weight of pancreas.
FIG. 22 is efficacy test results using acute pancreatitis model induced by cerulein. 50 ug/kg of cerulein was administered. Two hours later, edema was induced by administration of LPS. 25 mg/kg of compound 18 was administered, and the changes of amylase and lipase, pancreatic digestive enzymes, were quantified.
Cerulein-induced pancreatitis model was used as acute pancreatitis model. Cerulein is an analog of cholecystokinin and a hormone causing secretion of pancreatic digestive enzyme in pancreas. Digestive enzyme was over-secreted into pancreas by intraperitoneal injection of cerulein (50 ug/kg). LPS was injected 2 hours later to induce edema. When cerulein was administered, massive edema was observed on the basis of spleen. […] D of FIG. 21 is results showing the pancreas weight increased by the edema.
The model excessively increases digestive enzymes, which are released into blood. That is, the decrease of digestive enzyme in blood can be an indirect evidence for sample to reduce pancreatitis.
To confirm the protecting effect on inflammation, the levels of TNF-α and […], inflammatory cytokines, were evaluated. PGE2, the product of COX-2 (inflammation enzyme), were evaluated by ELISA method.

Series [3] in a line: Single-dose toxicity test. The series is classed as in vivo. Conditions: mouse, in vivo; single dose. The protocol:
FIG. 32 is results of single dose toxicity testing of some 2-hydroxybenzoic acid derivatives according to the present invention.
Single-dose toxicities of the 2-hydroxybenzoic acid derivatives were evaluated.

The next series deals with DSS-induced colitis. As to the kind of experiment: 5% dextran sulfate sodium (DSS) inflammatory intestinal disease model. The series is classed as in vivo, mouse. The protocol:
FIG. 17 is results showing efficacy through 5% dextran sulfate sodium (DSS) model, inflammatory intestinal disease animal model. After treatment of DSS, 10, 25 or 50 mg/kg of compound 18 suspended in 10% vehicle was orally administered. Sham means colon of normal mouse, DSS means colon mouse treated with 5% DSS. The others are pictures of colon of mice administered with compound 18 at indicated dose.
FIG. 20 is an efficacy test result of compound 18 using DSS. After treatment of DSS, compound 18 (25 mg/kg) suspended in 10% vehicle was orally administered. After that, bloody excrement by colon injury, diarrhea and the degree of dirtiness were evaluated as feces score.
5% dextran sulfate sodium (DSS) model was used as inflammatory intestinal disease animal model. 5% DSS mixed with water was orally administered. 5% DSS model causes damage to epithelial cell, and ulcer in left colon and the decrease of colon length are mainly observed in the model. This model is simple and reproductive, and can regulate the degree of inflammation according to dose. Therefore, this model is often used for evaluating drug candidates.
DSS is continuously administered in water bottle. The 2-hydroxybenzoic acid derivative was suspended in 10% vehicle, and orally administered.

The IC50 is the concentration that gives 50% inhibition. Low values mean inhibition by little substance, high ones a need for much substance. By LD50 is commonly meant the dose expected to kill half of the subjects tested. Higher therefore signals a less toxic substance.

Regarding `C[C@@H](O)CCCCn1c(=O)c2c(ncn2C)n(C)c1=O` [Lisofylline], the “reduction of diabetic symptoms” value with diabetic symptoms is 50%.

Turning to `COc1ccc2c(c1)c(CC(=O)O)c(C)n2C(=O)c1ccc(Cl)cc1` [indomethacine], the reduction of atherosclerosis with atherosclerosis is listed as 38-51%.

Turning to `CC(=O)Oc1ccc(NCCc2ccc(C(F)(F)F)cc2)cc1C(=O)O` [compound 18, 2-acetoxy-5-[2-(4-trifluoromethyl-phenyl)-ethylamino]-benzoic acid], the arthritic index result in series [1] is on record as “apparent reducing effect”. Further, in the series on gastric mucous membrane, the “gastric mucous membrane damage” value is given as “did not cause damage to gastric mucous membrane”. Besides, the IC50 in the series with BV2 microglia cell line stood at 21.6 µM. In series [2] (25 mg/kg), the “amylase and lipase in plasma” value is “significantly reduced the increase”; the pancreas weight entry is “significantly reduced pancreas weight”; the pancreatic edema result is “the edema was decreased”. In addition, in series [2] (ELISA), the “TNF-α, IL-1β and PGE2 (inflammation markers)” value is listed as “significantly reduced these inflammation markers”. Moreover, the LD50 in series [3] is > 3000 mg/kg. Also, the “length and width of colon” value in the series on DSS-induced colitis (oral, 10, 25 or 50 mg/kg in 10% vehicle) was “significantly changed the length and width of the colon”. In the series with DSS-induced colitis (vs DSS only, compound 18 25 mg/kg oral), the “feces score (bloody excrement, diarrhea, dirtiness)” value is listed as “significantly decreased feces score”.

These data come from patent publication US8598383B2, “Pharmaceutical composition for treating or preventing degenerative and inflammatory diseases” (Neurotech Pharmaceuticals Co., Ltd., priority 2006, dated 2013).
